Results taken from patent US10144715B2, “Piperazine derivatives as liver X receptor modulators” (priority 2014, dated 2018).
Where two headings read alike, the source gives them in different places.

Assays:
LXR α LBD protein = LXR α LBD protein (Homo sapiens (Human), UniProt Q13133); experiment: Human LXRα coactivator recruitment FRET assay, agonist mode; assay type: biochemical; details: agonist mode
Method: Two μL of the DMSO solutions were transferred to the plate and 38 μL of 10 nM LXRα-LBD or LXRβ-LBD (2×) were added immediately to the wells. The plate was shaken for 5 min at rt on an orbital micro shaker (DPC MicroMix® 5), after which 40 μL of 200 nM fluorescein-SRC2-3 peptide and 20 nM Terbium-anti-GST-antibody (Cat# PV3550, Life Technologies, Grand Island, N.Y.) solution (4×) were added to all. The plate was sealed and shaken for 2 min at rt, and incubated at rt for 2 h without agitation. […] The delay and window times were set at 100 and 200 microseconds, respectively. […] The percent control vs. compound concentration data were fit into a four-parameter model, and EC50 values were calculated from the fit as the concentrations corresponding to the inflection points on the concentration-response curves.

[1] = biological target: Gal4 DNA binding domain fused to the LBD of LXRα in HEK293 cells (Homo sapiens (Human), UniProt Q13133); experiment: LXR luciferase transcriptional reporter gene assay, agonist mode, LXRα; assay type: cell-based; details: for EC50: read-out: Cell LXRα EC50
Gal4 DNA binding domain fused to the LBD of LXRα in HEK293 cells, sequence (Q13133 209-447): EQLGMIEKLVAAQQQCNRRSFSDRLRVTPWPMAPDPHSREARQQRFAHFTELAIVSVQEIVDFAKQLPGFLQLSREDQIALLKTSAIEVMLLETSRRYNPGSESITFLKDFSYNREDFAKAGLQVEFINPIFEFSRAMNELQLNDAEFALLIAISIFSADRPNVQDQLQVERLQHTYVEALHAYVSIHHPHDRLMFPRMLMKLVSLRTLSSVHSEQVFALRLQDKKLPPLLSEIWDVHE

LXR α LBD protein, sequence (Q13133 209-447): as above

Compound	EC50 (LXR α LBD protein) [µM]	FRET LXRα efficacy (LXR α LBD protein) [%]	Cell LXRα efficacy [1]	EC50 ([1]; agonist mode) [µM]	EC50 [1] [µM]
CS(=O)(=O)c1cccc(N2CCN(Cc3ccc(C(F)(F)F)c(Cl)c3)[C@H](Cc3ccccc3)C2)c1 [46-33, (R)-2-benzyl-1-(3-chloro-4-(trifluoromethyl)benzyl)-4-(3-(methylsulfonyl)phenyl)piperazine]	2.54	37	2354 (44) %	2.35	
CS(=O)(=O)c1cccc(N2CCN(Cc3cccc(C(F)(F)F)c3)C(c3ccccc3)C2)c1 (centres unmarked) [46-13, 4-(3-(methylsulfonyl)phenyl)-2-phenyl-1-(3-(trifluoromethyl)benzyl)piperazine]	1.9	28		> 20	
Cc1cc(C)nc(N2CCN(c3cccc(S(C)(=O)=O)c3)C[C@H]2C(C)C)n1 [Cpd No 7-3, (R)-2-(2-isopropyl-4-(3-(methylsulfonyl)phenyl)piperazin-1-yl)-4,6-dimethylpyrimidine]	0.51	36	7923 (24) %	7.92	
CC(C)(C)OC(=O)N1CCN(c2cccc(S(C)(=O)=O)c2)C[C@H]1C(C)(C)O [6-1, tert-butyl (S)-2-(2-hydroxypropan-2-yl)-4-(3-(methylsulfonyl)phenyl)piperazine-1-carboxylate]	> 50				> 20
CC(C)[C@@H]1CN(c2ccc(C#N)c(S(C)(=O)=O)c2)CCN1c1cc(C(F)(F)F)ccn1 [7-39, (R)-4-(3-isopropyl-4-(4-(trifluoromethyl)pyridin-2-yl)piperazin-1-yl)-2-(methylsulfonyl)benzonitrile]	1.43	191	1502 (80) %	1.5	
CS(=O)(=O)c1cccc(N2CCN(Cc3ccc(C(F)(F)F)nc3)C(c3ccccc3Br)C2)c1 (centres unmarked) [46-60, 2-(2-bromophenyl)-4-(3-(methylsulfonyl)phenyl)-1-((6-(trifluoromethyl)pyridin-3-yl)methyl)piperazine]		39	4383 (33) %	4.38	
CC1(c2ccccc2)CN(c2cccc(S(C)(=O)=O)c2)CCN1Cc1ccc(C(F)(F)F)nc1 (centres unmarked) [46-49, 2-methyl-4-(3-(methylsulfonyl)phenyl)-2-phenyl-1-((6-(trifluoromethyl)pyridin-3-yl)methyl)piperazine]	0.264	10	3237 (12) %	3.24	
CS(=O)(=O)c1cccc(N2CCN(Cc3ccc(C(F)(F)F)c(Cl)c3)[C@@H](Cc3ccccc3)C2)c1 [Cpd No 45-1, (S)-2-benzyl-1-(3-chloro-4-(trifluoromethyl)benzyl)-4-(3-(methylsulfonyl)phenyl)piperazine]		39	3618 (61) %		3.62
tert-butyl (S)-2-isobutyl-4-(3-(methylsulfonyl)phenyl)piperazine-1-carboxylate [1-2]	6.81	55	9219 (6) %		9.22
CC(C)OC(=O)N1CCN(c2cccc(S(C)(=O)=O)c2)CC1c1ccccc1 (centres unmarked) [5-8, isopropyl 4-(3-(methylsulfonyl)phenyl)-2-phenylpiperazine-1-carboxylate]	19.8	41		> 20	
CC(C)[C@@H]1CN(c2ccc(C#N)c(S(C)(=O)=O)c2)CCN1c1ccc(C(F)(F)F)cn1 [7-37, (R)-4-(3-isopropyl-4-(5-(trifluoromethyl)pyridin-2-yl)piperazin-1-yl)-2-(methylsulfonyl)benzonitrile]	2.64	220	1702 (96) %	1.7	
COC(=O)c1cnc(N2CCN(c3cccc(S(C)(=O)=O)c3)C[C@H]2C(C)C)nc1 [7-9, methyl (R)-2-(2-isopropyl-4-(3-(methylsulfonyl)phenyl)piperazin-1-yl)pyrimidine-5-carboxylate]	0.48	57	3532 (36) %	3.53	
COC(=O)[C@@H]1CN(c2cccc(S(C)(=O)=O)c2)CCN1C(=O)OC(C)(C)C [1-4, 1-(tert-butyl) 2-methyl (S)-4-(3-(methylsulfonyl)phenyl)piperazine-1,2-dicarboxylate]	13.5	67	14195 (49) %	14.2	
CS(=O)(=O)c1cccc(N2CCN(C[C@H]3CC[C@H](C(F)F)CC3)[C@H](c3ccccc3)C2)c1 (single isomer, unassigned) [48-18]	> 50		18796 (7) %		18.8
CC(C)[C@@H]1CN(c2ccc(C(N)=O)c(S(C)(=O)=O)c2)CCN1C(=O)OC(C)(C)C [4-1, tert-butyl (R)-4-(4-carbamoyl-3-(methylsulfonyl)phenyl)-2-isopropylpiperazine-1-carboxylate]	14.5	68	15676 (21) %		15.7
CS(=O)(=O)c1cccc(N2CCN(Cc3ccc(C(F)(F)F)nc3)C(c3ccc(F)cc3)C2)c1 (centres unmarked) [46-51, 2-(4-fluorophenyl)-4-(3-(methylsulfonyl)phenyl)-1-((6-(trifluoromethyl)pyridin-3-yl)methyl)piperazine]	2.3	41	3658 (17) %	3.66	
CS(=O)(=O)c1cccc(N2CCN(Cc3ccccc3)C(c3ccccc3)C2)c1 (centres unmarked) [46-4, 1-benzyl-4-(3-(methylsulfonyl)phenyl)-2-phenylpiperazine]	0.875	41		> 20	
COC(=O)c1ccc(N2CCN(C(=O)OC(C)(C)C)C(c3ccccc3)C2)cc1S(C)(=O)=O (centres unmarked) [2-3, tert-butyl 4-(4-(methoxycarbonyl)-3-(methylsulfonyl)phenyl)-2-phenylpiperazine-1-carboxylate]	34.9	102		> 20	
CS(=O)(=O)c1cc(N2CCN(Cc3ccc(C(F)(F)F)nc3)C(c3ccccc3)C2)ccc1F (centres unmarked) [46-52, 4-(4-fluoro-3-(methylsulfonyl)phenyl)-2-phenyl-1-((6-(trifluoromethyl)pyridin-3-yl)methyl)piperazine]	5.2	20	11699 (17) %	11.7	
CC(C)[C@@H]1CN(c2ccc(C#N)c(S(C)(=O)=O)c2)CCN1C(=O)OC(C)(C)C [Cpd No 3-1, tert-butyl (R)-4-(4-cyano-3-(methylsulfonyl)phenyl)-2-isopropylpiperazine-1-carboxylate]	18	76	12810 (20) %	12.8	
CS(=O)(=O)c1cc(N2CCN(Cc3ccc(C(F)(F)F)nc3)C(c3ccccc3)C2)ccc1C(N)=O (centres unmarked) [46-58, 2-(methylsulfonyl)-4-(3-phenyl-4-((6-(trifluoromethyl)pyridin-3-yl)methyl)piperazin-1-yl)benzamide]	> 50		6986 (8) %	6.99	
CC(C)(C)OC(=O)N1CCN(c2cccc(S(C)(=O)=O)c2)C[C@@H]1c1ccccc1 [1-6, tert-butyl (S)-4-(3-(methylsulfonyl)phenyl)-2-phenylpiperazine-1-carboxylate]	8.39	14		> 20	
